Where “and” joins values, the source holds several entries; their conditions need not be identical. Identical values can stand only once. Inconclusive results and toxic doses are left out.

This test relates to CD2F1 mice, L1210 leukemia ip, survival T/C. Nature of the test: NCI In Vivo Anticancer Drug Screen. Data for tumor model L1210 Leukemia (intraperitoneal) in CD2F1 (CDF1) mice. The settings on record: higher = longer survival. Summed up: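 Implant tumor; dose compound or vehicle; measure endpoint in both groups; report treated divided by control.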
The mark [1] stands for this setting: endpoint: mean survival time, dose: 100.0 mg/kg/injection, schedule: Q01DX001 (ip), vehicle: saline with Tween-80.
Setting [2] is: endpoint: mean survival time, dose: 200.0 mg/kg/injection, schedule: Q01DX001 (ip), vehicle: saline with Tween-80.
[3] abbreviates: endpoint: mean survival time, dose: 400.0 mg/kg/injection, schedule: Q01DX001 (ip), vehicle: saline with Tween-80.
Where [4] appears, read: endpoint: mean survival time, dose: 100.0 mg/kg/injection, schedule: Q01DX009 (ip), vehicle: saline with Tween-80.
The mark [5] stands for this setting: endpoint: mean survival time, dose: 100.0 mg/kg/injection, schedule: Q04DX003 (ip), vehicle: saline with Tween-80.
Setting [6] is: endpoint: mean survival time, dose: 200.0 mg/kg/injection, schedule: Q01DX009 (ip), vehicle: saline with Tween-80.
[7] abbreviates: endpoint: mean survival time, dose: 200.0 mg/kg/injection, schedule: Q04DX003 (ip), vehicle: saline with Tween-80.
Where [8] appears, read: endpoint: mean survival time, dose: 400.0 mg/kg/injection, schedule: Q01DX009 (ip), vehicle: saline with Tween-80.

As for `NC(=O)NC1OC(CO)C(O)C(O)C1O` (centres undefined), the T/C is, setting by setting: (endpoint: mean survival time, dose: 100.0 mg/kg/injection, schedule: Q04DX003 (ip), vehicle: saline) 100 % of control; (endpoint: mean survival time, dose: 200.0 mg/kg/injection, schedule: Q04DX003 (ip), vehicle: saline) 100 % of control; (endpoint: mean survival time, dose: 400.0 mg/kg/injection, schedule: Q04DX003 (ip), vehicle: saline) 105 % of control.

Turning to `CCN(C)N=Nc1ccc(NC(N)=O)cc1`, the T/C (endpoint: mean survival time, dose: 4.68 mg/kg/injection, schedule: Q01DX009 (ip), vehicle: Klucel (hydroxypropylcellulose) (HPC)) is 109 % of control and 112 % of control; the T/C (endpoint: mean survival time, dose: 9.37 mg/kg/injection, schedule: Q01DX009 (ip), vehicle: Klucel (hydroxypropylcellulose) (HPC)) is 119 % of control and 108 % of control; the T/C (endpoint: mean survival time, dose: 18.75 mg/kg/injection, schedule: Q01DX009 (ip), vehicle: Klucel (hydroxypropylcellulose) (HPC)) was 124 % of control; the T/C (endpoint: mean survival time, dose: 37.5 mg/kg/injection, schedule: Q01DX009 (ip), vehicle: Klucel (hydroxypropylcellulose) (HPC)) was 152 % of control.

As for `Cc1cc(=NO)cc(C)n1O`, the T/C (endpoint: median survival time, dose: 25.0 mg/kg/injection, schedule: Q01DX009 (ip), vehicle: distilled water + alcohol) is 108 % of control; the T/C (endpoint: median survival time, dose: 50.0 mg/kg/injection, schedule: Q01DX009 (ip), vehicle: distilled water + alcohol) was 104 % of control; the T/C (endpoint: median survival time, dose: 100.0 mg/kg/injection, schedule: Q01DX009 (ip), vehicle: distilled water + alcohol) is 112 % of control; the T/C (endpoint: median survival time, dose: 200.0 mg/kg/injection, schedule: Q01DX009 (ip), vehicle: distilled water + alcohol) is 108 % of control; the T/C (endpoint: median survival time, dose: 400.0 mg/kg/injection, schedule: Q01DX009 (ip), vehicle: distilled water + alcohol) was 97 % of control.

As to `O=[N+]([O-])c1ccc(N/N=C(\CBr)c2ccccc2)c([N+](=O)[O-])c1`, the T/C under setting [1] was 101 % of control, the T/C under setting [2] is 92 % of control and the T/C under setting [3] was 93 % of control.

In the case of `CC(C)(CCC#N)C(=O)c1ccccc1`, the T/C is 94 % of control (endpoint: mean survival time, dose: 100.0 mg/kg/injection, schedule: Q04DX002 (ip), vehicle: saline with Tween-80) and 102 % of control (endpoint: mean survival time, dose: 200.0 mg/kg/injection, schedule: Q04DX002 (ip), vehicle: saline with Tween-80).

Regarding `CCOc1cc([N+](=O)[O-])c(OCC)cc1Cl`, the T/C under setting [4] is 90 % of control; the T/C under setting [5] was 92 % of control; the T/C under setting [6] is 96 % of control; the T/C under setting [7] was 89 % of control; the T/C under setting [8] is 98 % of control; the T/C (endpoint: mean survival time, dose: 400.0 mg/kg/injection, schedule: Q04DX003 (ip), vehicle: saline with Tween-80) was 93 % of control.

As to `CCCC[S+](CCCC)CC(=O)c1ccc(-c2ccccc2)cc1`, the T/C is, setting by setting: (endpoint: mean survival time, dose: 0.19 mg/kg/injection, schedule: Q01DX009 (ip), vehicle: saline with Tween-80) 97 % of control; (endpoint: mean survival time, dose: 0.39 mg/kg/injection, schedule: Q01DX009 (ip), vehicle: saline with Tween-80) 101 % of control; (endpoint: mean survival time, dose: 0.76 mg/kg/injection, schedule: Q01DX009 (ip), vehicle: saline with Tween-80) 98 % of control; (endpoint: mean survival time, dose: 1.56 mg/kg/injection, schedule: Q01DX009 (ip), vehicle: saline with Tween-80) 97 % of control; (endpoint: mean survival time, dose: 1.56 mg/kg/injection, schedule: Q01DX009 (ip), vehicle: saline) 86 % of control; (endpoint: mean survival time, dose: 3.12 mg/kg/injection, schedule: Q01DX009 (ip), vehicle: saline with Tween-80) 98 % of control. Moreover, the T/C (endpoint: mean survival time, dose: 3.13 mg/kg/injection, schedule: Q01DX009 (ip), vehicle: saline) is 87 % of control; the T/C (endpoint: mean survival time, dose: 12.5 mg/kg/injection, schedule: Q01DX009 (ip), vehicle: saline) was 87 % of control; the T/C (endpoint: mean survival time, dose: 25.0 mg/kg/injection, schedule: Q01DX009 (ip), vehicle: saline) is 87 % of control.

Consider `O=C1C(Cl)=C(c2ccccc2)C(=O)C(Cl)=C1c1ccccc1`, for which the T/C is 103 % of control (endpoint: mean survival time, dose: 50.0 mg/kg/injection, schedule: Q04DX003 (ip), vehicle: saline with Tween-80); 109 % of control under setting [5]; 107 % of control under setting [7].

On to `O=C1OCCO1`, for which the T/C reads like this: under setting [4], 92 % of control; under setting [6], 95 % of control; under setting [8], 97 % of control.

Regarding `O=C(/C=C/c1ccccc1)Oc1cc(O)cc(O)c1`, the T/C runs as follows: (endpoint: mean survival time, dose: 12.5 mg/kg/injection, schedule: Q04DX002 (ip), vehicle: saline with Tween-80) 102 % of control; (endpoint: mean survival time, dose: 25.0 mg/kg/injection, schedule: Q04DX002 (ip), vehicle: saline with Tween-80) 105 % of control; (endpoint: mean survival time, dose: 50.0 mg/kg/injection, schedule: Q04DX002 (ip), vehicle: saline with Tween-80) 105 % of control.

In the case of `CC1=C[S+](c2ccccc2)c2cccc3cc4ccccc4c1c23` (centres undefined), the T/C was 111 % of control (endpoint: mean survival time, dose: 5.0 mg/kg/injection, schedule: Q01DX001 (ip), vehicle: saline with Tween-80); 106 % of control (endpoint: mean survival time, dose: 10.0 mg/kg/injection, schedule: Q01DX001 (ip), vehicle: saline with Tween-80); 105 % of control (endpoint: median survival time, dose: 0.06 mg/kg/injection, schedule: Q01DX009 (ip), vehicle: saline with Tween-80); 105 % of control (endpoint: median survival time, dose: 0.12 mg/kg/injection, schedule: Q01DX009 (ip), vehicle: saline with Tween-80); 107 % of control (endpoint: median survival time, dose: 0.25 mg/kg/injection, schedule: Q01DX009 (ip), vehicle: saline with Tween-80); 109 % of control (endpoint: median survival time, dose: 0.5 mg/kg/injection, schedule: Q01DX009 (ip), vehicle: saline with Tween-80). Further, the T/C by setting is: (endpoint: median survival time, dose: 1.0 mg/kg/injection, schedule: Q01DX009 (ip), vehicle: saline with Tween-80) 109 % of control; (endpoint: median survival time, dose: 2.0 mg/kg/injection, schedule: Q01DX009 (ip), vehicle: saline with Tween-80) 115 % of control.

Regarding `N#CC(CCC(=O)O)(CCC(=O)O)c1ccccc1`, the T/C is 96 % of control under setting [4], 96 % of control under setting [6] and 96 % of control under setting [8].

Consider `COC(=O)c1ccccc1N=NNc1ccc(C(F)(F)F)c([N+](=O)[O-])c1`, for which the T/C was 103 % of control under setting [4], 95 % of control under setting [6] and 95 % of control under setting [8].

On to `O=C1C=C(NNc2ccccc2)CCC1`, for which the T/C by setting is: (endpoint: mean survival time, dose: 50.0 mg/kg/injection, schedule: Q01DX009 (ip), vehicle: saline with Tween-80) 104 % of control; under setting [4], 100 % of control.

For the compound `COc1cc2c(cc1OCc1ccccc1)NC(=O)C2`, the T/C runs as follows: under setting [1], 91 % of control; under setting [3], 86 % of control.

Take `CC1(C)CC(N2CCCOP2(=O)N(CCCl)CCCl)CC(C)(C)N1` (centres undefined): the T/C (endpoint: mean survival time, dose: 62.5 mg/kg/injection, schedule: Q01DX001 (ip), vehicle: water) is 105 % of control; the T/C (endpoint: mean survival time, dose: 125.0 mg/kg/injection, schedule: Q01DX001 (ip), vehicle: water) was 100 % of control; the T/C (endpoint: mean survival time, dose: 250.0 mg/kg/injection, schedule: Q01DX001 (ip), vehicle: water) is 106 % of control.

As for `Nc1ncnc2c1ncn2CCCCCO`, the T/C reads like this: under setting [1], 96 % of control; under setting [2], 91 % of control; under setting [3], 91 % of control.

For the compound `O=C(O)CP(=O)(O)O`, the T/C (endpoint: mean survival time, dose: 4.0 mg/kg/injection, schedule: Q01DX009 (ip), vehicle: saline) is 98 % of control; the T/C (endpoint: mean survival time, dose: 8.0 mg/kg/injection, schedule: Q01DX009 (ip), vehicle: saline) is 96 % of control; the T/C (endpoint: mean survival time, dose: 16.0 mg/kg/injection, schedule: Q01DX009 (ip), vehicle: saline) was 104 % of control; the T/C (endpoint: mean survival time, dose: 32.0 mg/kg/injection, schedule: Q01DX009 (ip), vehicle: saline) was 98 % of control; the T/C (endpoint: mean survival time, dose: 37.5 mg/kg/injection, schedule: Q01DX009 (ip), vehicle: saline) is 91 % of control; the T/C (endpoint: mean survival time, dose: 50.0 mg/kg/injection, schedule: Q01DX009 (ip), vehicle: saline) is 95 % of control and 103 % of control. In addition, the T/C reads like this: (endpoint: mean survival time, dose: 64.0 mg/kg/injection, schedule: Q01DX009 (ip), vehicle: saline) 103 % of control; (endpoint: mean survival time, dose: 75.0 mg/kg/injection, schedule: Q01DX009 (ip), vehicle: saline) 102 % of control; (endpoint: mean survival time, dose: 100.0 mg/kg/injection, schedule: Q01DX009 (ip), vehicle: saline) 98 % of control and 102 % of control; (endpoint: mean survival time, dose: 128.0 mg/kg/injection, schedule: Q01DX009 (ip), vehicle: saline) 86 % of control; (endpoint: mean survival time, dose: 150.0 mg/kg/injection, schedule: Q01DX009 (ip), vehicle: saline) 100 % of control; (endpoint: mean survival time, dose: 200.0 mg/kg/injection, schedule: Q01DX009 (ip), vehicle: saline) 97 % of control and 102 % of control. Also, the T/C was 98 % of control and 101 % of control (endpoint: mean survival time, dose: 400.0 mg/kg/injection, schedule: Q01DX009 (ip), vehicle: saline); 93 % of control and 103 % of control (endpoint: mean survival time, dose: 800.0 mg/kg/injection, schedule: Q01DX009 (ip), vehicle: saline).

The values above are taken from PubChem BioAssay AID256 (DTP/NCI, 2004).
